The values that follow come from patent US20230250060A1 (IFM Due, Inc., priority 2022, published 2023).

T1 sequence (Q86WV6 whole entry R71H/G230A/H232R/R293Q): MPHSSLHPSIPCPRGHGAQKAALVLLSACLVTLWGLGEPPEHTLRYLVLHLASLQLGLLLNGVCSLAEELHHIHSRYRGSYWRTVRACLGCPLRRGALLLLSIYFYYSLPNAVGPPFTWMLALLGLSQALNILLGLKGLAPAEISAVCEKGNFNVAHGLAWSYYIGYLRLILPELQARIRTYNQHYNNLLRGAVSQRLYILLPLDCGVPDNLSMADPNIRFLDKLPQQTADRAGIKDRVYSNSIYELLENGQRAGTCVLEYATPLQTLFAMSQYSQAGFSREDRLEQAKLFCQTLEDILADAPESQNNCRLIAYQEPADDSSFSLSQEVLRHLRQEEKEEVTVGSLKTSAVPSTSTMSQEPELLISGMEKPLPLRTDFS

This test addresses T1, STING (Homo sapiens, UniProt Q86WV6, G230A/H232R/R293Q/R71H).
T1 construct: host or cells: THP1-Dual KO-IFNAR2 cells
As to the kind of experiment: STING reporter assay (luciferase) in THP1-Dual KO-IFNAR2 cells stimulated with 2′3′cGAMP. The test is classed as cell-based. Conditions: 2′3′cGAMP 15 μM final, 24 h, luciferase reporter activity, read-out: Pharmaron, THP1_IFNAR2 STING 24 h Luci Normalized: GeoMean EC50. The gist of the method: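 THP1-Dual KO-IFNAR2 cells (2×10E6 cells/mL) exposed to compounds at 0.0017-100 μM final and stimulated with 2′3′cGAMP (15 μM final) delivered via Lipofectamine 2000. After 24 h at 37° C., secreted luciferase in supernatant read with QUANTI-Luc Plus; EC50 derived from luminescence.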
(In a reporter assay the amount or activity of a reporter protein is the signal.)
The term EC50 denotes the concentration giving half of the maximal effect. For the compound `O=C(Nc1c[nH]c2ccc(O[C@H]3C[C@@H](c4ccc(C(F)(F)F)cc4)C3)cc12)c1cncs1` [Compound 178, N-(5-((1s,3s)-3-(4-(trifluoromethyl)phenyl)cyclobutoxy)-1H-indol-3-yl)thiazole-5-carboxamide], the EC50 was 200 to 1000 nM.

With `O=C(Nc1c[nH]c2ccc(OCC[C@@H]3C[C@@H]4CN(CC(F)(F)F)C[C@@H]4C3)cc12)c1ccncc1` [Compound 179, N-(5-(2-((3aR,5r,6aS)-2-(2,2,2-trifluoroethyl)octahydrocyclopenta[c]pyrrol-5-yl)ethoxy)-1H-indol-3-yl)isonicotinamide], the EC50 was in the range of 200 to 1000 nM.

In the case of `O=C(Nc1c[nH]c2ccc(OCC[C@@H]3C[C@@H]4CN(CC(F)(F)F)C[C@@H]4C3)cc12)c1ccn[nH]1` [Compound 180, N-(5-(2-((3aR,5r,6aS)-2-(2,2,2-trifluoroethyl)octahydrocyclopenta[c]pyrrol-5-yl)ethoxy)-1H-indol-3-yl)-1H-pyrazole-5-carboxamide], the EC50 lay within 200 to 1000 nM.

For the compound `Cn1nccc1C(=O)Nc1c[nH]c2ccc(OCC[C@@H]3C[C@@H]4CN(CC(F)(F)F)C[C@@H]4C3)cc12` [Compound 181, 1-methyl-N-(5-(2-((3aR,5r,6aS)-2-(2,2,2-trifluoroethyl)octahydrocyclopenta[c]pyrrol-5-yl)ethoxy)-1H-indol-3-yl)-1H-pyrazole-5-carboxamide], the EC50 was 200 to 1000 nM.

As for `O=C(Nc1c[nH]c2ccc(OCC[C@@H]3C[C@@H]4CN(CC(F)(F)F)C[C@@H]4C3)cc12)c1cccnc1` [Compound 182, N-(5-(2-((3aR,5r,6aS)-2-(2,2,2-trifluoroethyl)octahydrocyclopenta[c]pyrrol-5-yl)ethoxy)-1H-indol-3-yl)nicotinamide], the EC50 is 200 to 1000 nM.

With `O=C(Nc1c[nH]c2ccc(OCC[C@@H]3C[C@@H]4CN(CC(F)(F)F)C[C@@H]4C3)cc12)c1ccccn1` [Compound 183, N-(5-(2-((3aR,5r,6aS)-2-(2,2,2-trifluoroethyl)octahydrocyclopenta[c]pyrrol-5-yl)ethoxy)-1H-indol-3-yl)picolinamide], the EC50 fell in the range of 1000 to 5000 nM.

Turning to `O=C(CC1CC1)Nc1c[nH]c2ccc(OCC[C@@H]3C[C@@H]4CN(CC(F)(F)F)C[C@@H]4C3)cc12` [Compound 184], the EC50 is 200 to 1000 nM.

For `O=C(Nc1c[nH]c2ccc(OCC[C@@H]3C[C@@H]4CN(CC(F)(F)F)C[C@@H]4C3)cc12)C12CC(F)(C1)C2` [Compound 185, 3-fluoro-N-(5-(2-((3aR,5r,6aS)-2-(2,2,2-trifluoroethyl)octahydrocyclopenta[c]pyrrol-5-yl)ethoxy)-1H-indol-3-yl)bicyclo[1.1.1]pentane-1-carboxamide], the EC50 fell in the range of 200 to 1000 nM.

`O=C(Nc1c[nH]c2ccc(OCC[C@@H]3C[C@@H]4CN(CC(F)(F)F)C[C@@H]4C3)cc12)C12CC(C1)C2` [Compound 186, N-(5-(2-((3aR,5r,6aS)-2-(2,2,2-trifluoroethyl)octahydrocyclopenta[c]pyrrol-5-yl)ethoxy)-1H-indol-3-yl)bicyclo[1.1.1]pentane-1-carboxamide]: the EC50 lay in the range of 200 to 1000 nM.

With `O=C(Nc1c[nH]c2ccc(OCC[C@@H]3C[C@@H]4CN(CC(F)(F)F)C[C@@H]4C3)cc12)c1ncccc1F` [Compound 187, 3-fluoro-N-(5-(2-((3aR,5r,6aS)-2-(2,2,2-trifluoroethyl)octahydrocyclopenta[c]pyrrol-5-yl)ethoxy)-1H-indol-3-yl)picolinamide], the EC50 was in the range of 1000 to 5000 nM.

For `O=C(Nc1c[nH]c2ccc(OCC[C@@H]3C[C@@H]4CN(CC(F)(F)F)C[C@@H]4C3)cc12)c1nccs1` [Compound 188, N-(5-(2-((3aR,5r,6aS)-2-(2,2,2-trifluoroethyl)octahydrocyclopenta[c]pyrrol-5-yl)ethoxy)-1H-indol-3-yl)thiazole-2-carboxamide], the concentration for a half-maximal effect (EC50) fell in the range of 200 to 1000 nM.

For the compound `Cc1noc(C)c1C(=O)Nc1c[nH]c2ccc(OCC[C@@H]3C[C@@H]4CN(CC(F)(F)F)C[C@@H]4C3)cc12` [Compound 189, 3,5-dimethyl-N-(5-(2-((3aR,5r,6aS)-2-(2,2,2-trifluoroethyl)octahydrocyclopenta[c]pyrrol-5-yl)ethoxy)-1H-indol-3-yl)isoxazole-4-carboxamide], the EC50 is 200 to 1000 nM.

For `O=C(Nc1c[nH]c2ccc(OCC[C@@H]3C[C@@H]4CN(CC(F)(F)F)C[C@@H]4C3)cc12)c1cncs1` [Compound 190, N-(5-(2-((3aR,5r,6aS)-2-(2,2,2-trifluoroethyl)octahydrocyclopenta[c]pyrrol-5-yl)ethoxy)-1H-indol-3-yl)thiazole-5-carboxamide], the EC50 was 200 to 1000 nM.

Take `O=C(Nc1c[nH]c2ccc(OCCc3ccc(C(F)(F)F)cc3)cc12)C1CC2(CCC2)C1` [Compound 191, N-(5-(4-(trifluoromethyl)phenethoxy)-1H-indol-3-y)spiro[3.3]heptane-2-carboxamide]: the EC50 is 40 to 200 nM.

As to `O=C(Nc1c[nH]c2ccc(O[C@H]3C[C@@H](c4ccc(C(F)(F)F)cc4)C3)cc12)c1cscn1` [Compound 192, N-(5-((1s,3s)-3-(4-(trifluoromethyl)phenyl)cyclobutoxy)-1H-indol-3-yl)thiazole-4-carboxamide], the EC50 is 200 to 1000 nM.

As to `O=C(Nc1c[nH]c2ccc(OCC[C@@H]3C[C@@H]4CN(CC(F)(F)F)C[C@@H]4C3)cc12)c1cscn1` [Compound 193, N-(5-(2-((3aR,5r,6aS)-2-(2,2,2-trifluoroethyl)octahydrocyclopenta[c]pyrrol-5-yl)ethoxy)-1H-indol-3-yl)thiazole-4-carboxamide], the concentration for a half-maximal effect (EC50) fell in the range of 200 to 1000 nM.

As for `O=C(Nc1c[nH]c2ccc(CCOc3ccc(C(F)(F)F)cc3)cc12)c1ccncc1` [Compound 194, N-(5-(2-(4-(trifluoromethyl)phenoxy)ethyl)-1H-indol-3-yl)isonicotinamide], the EC50 is 200 to 1000 nM.

Turning to `O=C(Nc1c[nH]c2ccc(CCOc3ccc(C(F)(F)F)cc3)cc12)c1cccnc1` [Compound 195, N-(5-(2-(4-(trifluoromethyl)phenoxy)ethyl)-1H-indol-3-yl)nicotinamide], the EC50 fell in the range of 200 to 1000 nM.

Take `O=C(Nc1c[nH]c2ccc(CCOc3ccc(C(F)(F)F)cc3)cc12)c1ccccn1` [Compound 196, N-(5-(2-(4-(trifluoromethyl)phenoxy)ethyl)-1H-indol-3-yl)picolinamide]: the EC50 lay within 1000 to 5000 nM.

On to `O=C(CC1CC1)Nc1c[nH]c2ccc(CCOc3ccc(C(F)(F)F)cc3)cc12` [Compound 197, 2-cyclopropyl-N-(5-(2-(4-(trifluoromethyl)phenoxy)ethyl)-1H-indol-3-yl)acetamide], for which the EC50 lay within 200 to 1000 nM.

Turning to `O=C(Nc1c[nH]c2ccc(CCOc3ccc(C(F)(F)F)cc3)cc12)C1CC2(CC2)C1` [Compound 198, N-(5-(2-(4-(trifluoromethyl)phenoxy)ethyl)-1H-indol-3-yl)spiro[2.3]hexane-5-carboxamide], the EC50 lay within 200 to 1000 nM.

In the case of `CC12CC(C(=O)Nc3c[nH]c4ccc(CCOc5ccc(C(F)(F)F)cc5)cc34)(C1)C2` [Compound 199, 3-methyl-N-(5-(2-(4-(trifluoromethyl)phenoxy)ethyl)-1H-indol-3-yl)bicyclo[1.1.1]pentane-1-carboxamide], the EC50 is 200 to 1000 nM.

For `O=C(Nc1c[nH]c2ccc(CCOc3ccc(C(F)(F)F)cc3)cc12)C1CC12CC2` (stereo not drawn) [Compound 200, N-(5-(2-(4-(trifluoromethyl)phenoxy)ethyl)-1H-indol-3-yl)spiro[2.2]pentane-1-carboxamide], the EC50 was in the range of 200 to 1000 nM.

As to `O=C(Nc1c[nH]c2ccc(CCOc3ccc(C(F)(F)F)cc3)cc12)c1nccs1` [Compound 201, N-(5-(2-(4-(trifluoromethyl)phenoxy)ethyl)-1H-indol-3-yl)thiazole-2-carboxamide], the EC50 is 200 to 1000 nM.

Take `O=C(Nc1c[nH]c2ccc(CCOc3ccc(C(F)(F)F)cc3)cc12)c1cscn1` [Compound 202, N-(5-(2-(4-(trifluoromethyl)phenoxy)ethyl)-1H-indol-3-yl)thiazole-4-carboxamide]: the EC50 lay within 200 to 1000 nM.

For the compound `Cn1nccc1C(=O)Nc1c[nH]c2ccc(OCCc3ccc(C(F)(F)F)cc3)cc12` [Compound 203, 1-methyl-N-(5-(4-(trifluoromethyl)phenethoxy)-1H-indol-3-yl)-1H-pyrazole-5-carboxamide], the EC50 lay in the range of 200 to 1000 nM.

On to `O=C(Nc1c[nH]c2ccc(O[C@H]3C[C@@H](c4ccc(C(F)(F)F)cc4)C3)cc12)C12CC(O)(C1)C2` [Compound 204, 3-hydroxy-N-(5-(cis-3-(4-(trifluoromethyl)phenyl)cyclobutoxy)-1H-indol-3 yl)bicyclo[1.1.1]pentane-1-carboxamide], for which the EC50 is 1000 to 5000 nM.

Regarding `CC1(C(=O)Nc2c[nH]c3ccc(OCC[C@@H]4C[C@@H]5CN(CC(F)(F)F)C[C@@H]5C4)cc23)CC2(COC2)C1` [Compound 205, 6-methyl-N-(5-(2-((3aR,5r,6aS)-2-(2,2,2-trifluoroethyl)octahydrocyclopenta[c]pyrrol-5-yl)ethoxy)-1H-indol-3-yl)-2-oxaspiro[3.3]heptane-6-carboxamide], the EC50 was 200 to 1000 nM.

On to `O=C(Nc1c[nH]c2ccc(OCC[C@@H]3C[C@@H]4CN(CC(F)(F)F)C[C@@H]4C3)cc12)C1CC2(COC2)C1` [Compound 206, N-(5-(2-((3aR,5r,6aS)-2-(2,2,2-trifluoroethyl)octahydrocyclopenta[c]pyrrol-5-yl)ethoxy)-1H-indol-3-yl)-2-oxaspiro[3.3]heptane-6-carboxamide], for which the EC50 was 200 to 1000 nM.

Regarding `O=C(Nc1c[nH]c2ccc(O[C@H]3C[C@H](c4ccc(C(F)(F)F)cc4)C3)cc12)C1C2COCC21` (stereo partly drawn) [Compound 207, N-(5-(trans-3-(4-(trifluoromethyl)phenyl)cyclobutoxy)-1H-indol-3-yl)-3-oxabicyclo[3.1.0]hexane-6-carboxamide], the EC50 fell in the range of 200 to 1000 nM.
